According to patent US10759796B2, “CXCR4 inhibitors and uses thereof” (X4 Pharmaceuticals, Inc., priority 2016, dated 2020):
Like-named read-outs stand apart in the source and are kept apart here.

Legend:
[1] = Fraction of drug unbound to brain proteins, rat; format: in vitro ADME; settings: read-out: Fu (b)
[2] = Rat pharmacokinetics and brain penetration (IV and PO); format: in vivo; settings: male, SD, 3 mg/kg IV, 10 mg/kg PO; for Kp / Kp uu: brain and plasma; for Kp / Kp uu / clearance / bioavailability / half-life: Rat; for Kp: read-out: Kp (brain/plasma drug concentration ratio); for Kp uu: read-out: Kp, uu (unbound brain/unbound plasma drug concentration ratio); for clearance / bioavailability / half-life: plasma; for bioavailability: read-out: F % (oral bioavailability); for half-life: read-out: t½ (converted)
Protocol: Example 29: Pharmacokinetics and Brain Penetration Experiment to Determine Brain and Plasma Concentrations of Compounds After IV Administration to Male CD1 Mice or Male SD Rat
The study design consisted of 2 groups (24 animals and 18 animals) and administrating the drug [IV: 3 mg/kg (1.5 mL/kg) via foot dorsal vein], [PO: 10 mg/kg (5 mL/kg) via oral gavage] and collecting samples at terminal bleeding for plasma, brain and CSF at 0.25, 0.5, 1, 4, 8 and 24 hr. The IV and PO dosing solutions were prepared in 50 mM citrate buffer (pH 4.0) at 2 mg/mL. The blood collection was performed as follows: the animal was restrained manually at the designated time points, approximately 150 μL of blood sample was collected via cardiac puncture vein into EDTA-2K tubes. The blood samples were maintained in wet ice first and centrifuged to obtain plasma (2000 g, 4° C., 5 min) within 15 minutes post sampling. The brain collection was performed as follows: a mid-line incision was made in the animal's scalp and the skin was retracted. Using small bone cutters and rongeurs, the skull overlying the brain was removed. The brain was removed using a spatula and rinsed with cold saline. The brain was placed in screw-top tubes and then stored under −70° C. until analysis. The CSF collection was performed as follows: the animal was euthanized under deep anesthesia with air bubble tail vein injection. The CSF was collected by direct puncture of butterfly needle into the cisterna magna, using the occipital bone and the wings of the atlas as landmarks. A piece of white paper was used as a background to monitor color change in the sample just above the needle during collection. Upon observation of color change, the PE tubing was quickly clamped off above the color change and cut just above the clamped site. The clear sample was drawn into the syringe.
Plasma Samples Preparation:
An aliquot of 30 μL sample was added with 100 MeCN containing 100 ng/mL IS (Dexamethasone). The mixture was vortexed for 10 min and centrifuged at 5800 rpm for 10 min. An aliquot of 40 μL supernatant was added with 40 μl H2O and the mixture was vortexed for 5 min. An aliquot of 2 μL supernatant was injected for LC-MS/MS analysis.
Brain Samples Preparation:
The sample was homogenized with 3 volumes (v/w) of PBS. An aliquot of 30 μL sample was added with 100 μL ACN containing 100 ng/mL IS (Dexamethasone). The mixture was vortexed for 10 min and centrifuged at 5800 rpm for 10 min. An aliquot of 40 μL supernatant was added with 40 μl H2O and the mixture was vortexed for 5 min. An aliquot of 2 μL supernatant was injected for LC-MS/MS analysis.
An aliquot of 10 μL sample was added with 10 μLMeOH/H2O (1/1) and […], ACN containing 200 ng/mL IS (Dexamethasone) 120 μL H2O. The mixture was vortexed for 5 min. An aliquot of 2 μL supernatant was injected for LC-MS/MS analysis.
The sample analysis was performed on UPLC-MS/MS-02 (Triple Quad 4000) under the following conditions: positive ion, ESI, MRM detection using dexamethasone as internal standard. HPLC conditions: mobile phase A: H2O-0.1% FA, mobile phase B: MeCN-0.1% FA on ACQUITY UPLC HSS T3 (2.1×50 mm, 1.8 μm) column at 60° C.

[3] = in vitro; settings: human, Caco-2, pH 7.4
Method in brief: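 Compounds at 10 μM in HBSS pH 7.4 (0.1–0.3% DMSO) were dosed on Caco-2 monolayers, apical-to-basolateral and basolateral-to-apical, for 90 min at 37 °C, in duplicate. Monolayer integrity was checked by TEER and lucifer yellow flux, read by fluorescence at 485/535 nm. Compound was quantified by LC-MS/MS and Papp calculated.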

[4] = Rat brain, read-out: AUClast (b)
[5] = Rat plasma, read-out: AUClast (p)

Papp A→B at 90 min, 10 μM [3]	Papp B→A at 90 min, 10 μM [3]	efflux ratio at 90 min, 10 μM [3]	Structure (SMILES)	fraction unbound [1]	Kp [2]	Kp uu [2]	clearance [2]	bioavailability [2]	half-life [2]	AUC(0-t) [2, 4]	AUC(0-t) [2, 5]
10 to 30 ×10⁻⁶ cm/s	10 to 30 ×10⁻⁶ cm/s	0.1 to 10	CN1CCN(c2cccc3nc([C@@H]4CCC[C@H](c5ncccc5Cl)N4)cn23)CC1 (single isomer, unassigned) [Compound I-189]	0.061	4.03	0.99	68.8 mL/min/kg	25.4%	8.14 h	2300 ng·h/mL	570 ng·h/mL
10 to 30 ×10⁻⁶ cm/s	10 to 30 ×10⁻⁶ cm/s	0.1 to 10	Cc1cccnc1[C@@H]1CCC[C@H](c2cn3c(-c4cccnc4)cccc3n2)N1C [Compound I-6]	–	–	–	–	–	–	–	–
0.1 to 10 ×10⁻⁶ cm/s	0.1 to 10 ×10⁻⁶ cm/s	0.1 to 10	CCN1CCN(c2cccc3nc([C@H]4CCC[C@@H](c5ncccc5C)N4C)c(Br)n23)CC1 [Compound I-19]	–	–	–	–	–	–	–	–
0.1 to 10 ×10⁻⁶ cm/s	0.1 to 10 ×10⁻⁶ cm/s	0.1 to 10	Cc1cccnc1[C@@H]1CCC[C@H](c2nc3cccc(N4CCC(N(C)C)CC4)n3c2Cl)N1C [Compound I-114]	–	–	–	–	–	–	–	–
10 to 30 ×10⁻⁶ cm/s	10 to 30 ×10⁻⁶ cm/s	0.1 to 10	Cc1cccnc1[C@@H]1CCC[C@H](c2nc3cccc(N4CCN(C)CC4)n3c2Cl)N1 [Compound I-146]	0.007	1.82	0.18	24.3 mL/min/kg	70.1%	7.89 h	7800 ng·h/mL	4280 ng·h/mL

Further lines, the molecule ahead of its results:

Structure (SMILES)	Papp A→B at 90 min, 10 μM [3]	Papp B→A at 90 min, 10 μM [3]	efflux ratio at 90 min, 10 μM [3]	fraction unbound [1]	Kp [2]	Kp uu [2]	clearance [2]	bioavailability [2]	half-life [2]	AUC(0-t) [2, 4]	AUC(0-t) [2, 5]
CN1CCN(c2cccc3nc([C@H]4CCC[C@@H](c5ncccc5Cl)N4)cn23)CC1 (racemic) [Compound I-149]	10 to 30 ×10⁻⁶ cm/s	10 to 30 ×10⁻⁶ cm/s	0.1 to 10	0.038	8.4	1.6	127 mL/min/kg	37.9%	6.7 h	3820 ng·h/mL	457 ng·h/mL
CN1CCN(c2cccc3nc([C@H]4CCC[C@@H](c5ncccc5Cl)N4)cn23)CC1 (single isomer, unassigned) [Compound I-188]	10 to 30 ×10⁻⁶ cm/s	10 to 30 ×10⁻⁶ cm/s	0.1 to 10	0.057	5.65	1.04	74.3 mL/min/kg	36.9%	6.87 h	4470 ng·h/mL	791 ng·h/mL
Cc1cccnc1[C@@H]1CCC[C@H](c2nc3cccc(N4CCN(C)CC4)n3c2Cl)N1C [Compound I-18]	0.1 to 10 ×10⁻⁶ cm/s	0.1 to 10 ×10⁻⁶ cm/s	0.1 to 10	–	–	–	–	–	–	–	–
Cc1cccnc1[C@@H]1CCC[C@H](c2nc3cccc(N4CCN(C(C)C)CC4)n3c2Br)N1C [Compound I-20]	0.1 to 10 ×10⁻⁶ cm/s	0.1 to 10 ×10⁻⁶ cm/s	0.1 to 10	–	–	–	–	–	–	–	–
Cc1cccnc1[C@@H]1CCC[C@H](c2cn3c(N4CCN(C)CC4)cccc3n2)N1 [Compound I-187]	0.1 to 10 ×10⁻⁶ cm/s	10 to 30 ×10⁻⁶ cm/s	0.1 to 10	–	–	–	–	–	–	–	–
